Results taken from patent publication US20090202571A1, “Bioreductively-activated prodrugs” (HOPNIC LABORATORY CO., LTD., priority 2004, published 2009).

Assays:
[1] = test system: A549 cells; test: Cellular cytotoxicity (Celltiter 96 Aqueous One Solution, MTS); format: cell-based; details: 61 h incubation period as printed, MTS absorbance 490 nm
Source text: The cytotoxic or cytostatic properties of compounds of formula (1) and corresponding etoposide compounds can be assessed for example, by use, for example, of this assay. The Celltiter 96® Aqueous One Solution Cell Proliferation Assay kit (Promega Corporation, USA) which is a colorimetric method for determining the number of viable cells in proliferation or cytotoxicity assays was used. In this assay the MTS tetrazolium compound (Owen's Reagent) is bioreduced by viable cells into a coloured formazan product which is soluble in tissue culture medium and can be measured by recording absorbance at 490 nm with a 96 well plate reader. A549 cells were seeded in Eagles Minimum Essential Medium supplemented with 10% foetal calf serum and non-essential amino acids at 10^3 cell per well on a 96 well plate and allowed to attach for 24 h. Compounds were dissolved in DMSO and diluted with cell culture medium before addition. […] The MTS reagent was added to each well, left for 4 h, then the absorbance measured at 490 nm with a 96 well plate reader.

[2] = Metabolism in tumour homogenates; format: in vitro ADME; details: 5 μmol dm^−3 prodrug, NADPH, pH 7.4, 37° C.
Experimental: Useful bioreductive prodrugs can be shown to release the active drug selectively under conditions of low oxygen in the presence of tumour homogenate in this assay. Freshly-excised CaNT tumours (approximately 0.5 to 1 g) were homogenised in 15 ml of ice-cold 50 mmol din^−3 potassium phosphate buffer at pH 7.4.

[3] = target: T1, human P450 reductase (Homo sapiens, UniProt P16435); test: Drug release by human cytochrome P450 reductase; format: biochemical; details: NADPH, pH 7.4, 37° C.
T1 construct: purchased Gentest or Cypex P244 (Gentest) or Cyp004 (Cypex)
T1 sequence (P16435 1-677): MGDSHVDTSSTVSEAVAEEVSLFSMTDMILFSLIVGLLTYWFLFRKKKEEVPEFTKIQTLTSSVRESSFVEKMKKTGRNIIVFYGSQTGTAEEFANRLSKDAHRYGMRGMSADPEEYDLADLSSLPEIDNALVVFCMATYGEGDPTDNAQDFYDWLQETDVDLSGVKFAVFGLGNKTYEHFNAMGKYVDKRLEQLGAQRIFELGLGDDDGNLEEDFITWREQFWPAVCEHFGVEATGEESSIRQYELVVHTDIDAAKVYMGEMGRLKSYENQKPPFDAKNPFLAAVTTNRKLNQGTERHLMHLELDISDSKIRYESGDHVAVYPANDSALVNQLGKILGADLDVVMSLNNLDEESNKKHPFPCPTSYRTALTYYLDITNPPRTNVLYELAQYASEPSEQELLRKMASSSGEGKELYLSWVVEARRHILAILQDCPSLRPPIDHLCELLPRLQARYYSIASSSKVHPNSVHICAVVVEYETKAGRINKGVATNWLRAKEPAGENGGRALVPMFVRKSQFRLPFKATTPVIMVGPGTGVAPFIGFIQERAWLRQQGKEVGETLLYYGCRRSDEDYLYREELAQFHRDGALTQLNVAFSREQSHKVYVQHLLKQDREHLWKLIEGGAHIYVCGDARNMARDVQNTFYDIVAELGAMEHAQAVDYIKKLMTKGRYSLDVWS
Experimental: Cytochrome p450 reductase is widely expressed in human tumours as well as in a range of normal tissues and is one of a number of enzymes that can catalyse bioreduction. […] For experiments under nitrogen the mixture was degassed with nitrogen for 20 minutes prior to compound addition and overgassed with nitrogen during the incubation.

[4] = 5 μmol dm^−3 prodrug, NADPH, pH 7.4, 37° C.
Experimental: Freshly-excised mouse liver (approximately 1 g) was homogenised in 15 ml of ice-cold 50 mmol dm^−3 potassium phosphate buffer at pH 7.4. The homogenates were centrifuged at 1000 RPM for 10 min and the supernatants stored on ice. The metabolism of 5 µmol dm^−3 prodrug in air was performed with 0.5 ml liver homogenate (˜2 mg of protein by Bradford assay) with 100 µmol dm^−3 NADPH in 50 mmol dm^−3 potassium phosphate buffer at pH 7.4 incubated at 37° C. Samples (60 µl) were taken at regular intervals and added to an equivalent volume of acetonitrile, then mixed and centrifuged at 14, 300 RPM for 2 min prior to product analysis by HPLC.

Compound: 9-[(4,6-O-Ethylidene-β-D-glucopyranosyl)oxy]-5,8,8a,9-tetrahydro-5-(4-(1-(5-nitrothien-2-yl)ethoxy)-3,5-dimethoxyphenyl)furo[3′,4′:6,7]naphtha[2,3-d]-1,3-dioxol-6(5aH)-one [Example 1]
- IC50 [1]: > 20 µM
- etoposide production ([2]; under air): no etoposide production was detected
- rate of etoposide production ([2]; under nitrogen): 17 μmol/min/mg protein
- drug production ([3]; under air): no drug production could be detected
- rate of etoposide production ([3]; under anoxia (nitrogen)): 0.83 nmol min^−1 mg protein^−1

Compound: 9-[(4,6-O-Ethylidene-β-D-glucopyranosyl)oxy]-5,8,8a,9-tetrahydro-5-(4-(5-nitrothien-2-yl)methoxy)-3,5-dimethoxyphenyl)furo[3′,4′:6,7]naphtha[2,3-d]-1,3-dioxol-6(5aH)-one [Example 2]
- Rate of drug release (pmol/min/mg protein) Anoxic ([4]; Anoxic (nitrogen)): 388 pmol/min/mg protein
- Rate of drug release (pmol/min/mg protein) Oxic ([4]; Oxic (air)): 7 pmol/min/mg protein

Compound: COc1cc([C@@H]2c3cc4c(cc3[C@@H](O[C@@H]3O[C@@H]5CO[C@@H](C)O[C@H]5[C@H](O)[C@H]3O)[C@H]3COC(=O)[C@H]23)OCO4)cc(OC)c1O [etoposide, reference compound]
- IC50 ([1]; Homo sapiens): 7.5 µM
